18 compounds from ChEMBL document CHEMBL1130462, “New enone derivatives of oleanolic acid and ursolic acid as inhibitors of nitric oxide production in mouse macrophages” (Bioorg Med Chem Lett, 1997) can be followed below.

The term IC50 denotes the midpoint of a concentration-inhibition curve.

The first experiment is filed under the species Mus musculus. Nature of the experiment: Compound was measured for its inhibitory activity on IFN-gamma-induced nitric oxide production in mouse macrophage. The experiment is classed as functional.
Regarding `C[C@]12CCC(=O)C=C1CCC1[C@@H]2[C@@H](O)C[C@@]2(C)[C@H]1CC[C@]2(O)C(=O)CO` (single isomer, unassigned) [HYDROCORTISONE], the IC50 was determined as 0.015 µM. In other words, the double-digit nanomolar range.

The species named for a further experiment is Mus musculus. Nature of the experiment: Inhibitory activity on IFN-gamma-induced nitric oxide production in mouse macrophage at a concentration of 0.1-40 uM. The experiment is classed as functional.
Compound `CC1(C)CC[C@]2(C(=O)O)CC[C@]3(C)C(=C2C1)C=C[C@@H]1[C@@]2(C)C=CC(=O)C(C)(C)[C@@H]2CC[C@]13C` showed an IC50 of 9.7 µM.

Consider `CC1(C)CC[C@]2(C(=O)O)CC[C@]3(C)C(=C2C1)CC(=O)[C@@H]1[C@@]2(C)C=CC(=O)C(C)(C)[C@@H]2CC[C@]13C`, for which the IC50 was 2.6 µM. This IC50 is about 3.7-fold lower than that of the compound before.

Compound `CC1(C)CC[C@]2(C(=O)O)CC[C@]3(C)[C@H](C(=O)C=C4[C@@]5(C)C=CC(=O)C(C)(C)[C@@H]5CC[C@]43C)[C@@H]2C1` gave an IC50 of 0.9 µM.

Consider `CC1(C)CC[C@]2(C(=O)O)CC[C@]3(C)C(=CC(=O)[C@@H]4[C@@]5(C)C=CC(=O)C(C)(C)[C@@H]5CC[C@]43C)C2C1` (stereo partly drawn), for which the IC50 amounted to 1.8 µM. This IC50 lies about 2-fold higher than the previous one.

`CC1(C)CC[C@]2(C(=O)O)CC[C@]3(C)C(=CC[C@@H]4[C@@]5(C)C=CC(=O)C(C)(C)[C@@H]5CC[C@]43C)C2C1` (stereo partly drawn) registered an IC50 of 6 µM.

`CC1(C)CC[C@]2(C(=O)O)CC[C@]3(C)C(C(=O)C[C@@H]4[C@@]5(C)C=CC(=O)C(C)(C)[C@@H]5CC[C@]43C)C2C1` (stereo partly drawn) gave a half-maximal inhibitory concentration (IC50) of 3.3 µM.

For the compound `C[C@@H]1CC[C@]2(C(=O)O)CC[C@]3(C)C(=CC[C@@H]4[C@@]5(C)C=CC(=O)C(C)(C)[C@@H]5CC[C@]43C)C2[C@H]1C` (stereo partly drawn), the concentration for half-maximal inhibition (IC50) is 17.6 µM.

In the case of `CC1(C)CC[C@]2(C(=O)O)CC[C@]3(C)C(CC=C4[C@@]5(C)C=CC(=O)C(C)(C)[C@@H]5CC[C@]43C)C2C1` (stereo partly drawn), the IC50 worked out at 5.2 µM.

As for `COC1=C[C@]2(C)[C@H]3CC=C4C5CC(C)(C)CC[C@]5(C(=O)O)CC[C@@]4(C)[C@]3(C)CC[C@H]2C(C)(C)C1=O` (stereo partly drawn), the IC50 worked out at 30 µM.

For `CC1(C)CC[C@]2(C(=O)O)CC[C@]3(C)C(CC[C@@H]4[C@@]5(C)C=CC(=O)C(C)(C)[C@@H]5CC[C@]43C)C2C1` (stereo partly drawn), half-maximal inhibition (IC50) required 8.5 µM. This IC50 lies about 3.5-fold lower than the previous one.

With `C[C@@H]1CC[C@]2(C(=O)O)CC[C@]3(C)C(=CC(=O)[C@@H]4[C@@]5(C)C=CC(=O)C(C)(C)[C@@H]5CC[C@]43C)C2[C@H]1C` (stereo partly drawn), the IC50 came to 5.1 µM.

On to `CC1(C)CC[C@]2(C(=O)O)CC[C@]3(C)C(=CC[C@@H]4[C@@]5(C)C=C(O)C(=O)C(C)(C)[C@@H]5CC[C@]43C)C2C1` (stereo partly drawn), for which the IC50 worked out at 26.5 µM.

Consider `COC(=O)[C@]12CCC(C)(C)CC1C1=CC[C@@H]3[C@@]4(C)C=CC(=O)C(C)(C)[C@@H]4CC[C@@]3(C)[C@]1(C)CC2` (stereo partly drawn), for which half-maximal inhibition (IC50) required 40 µM.

The compound `CC1(C)CC[C@]2(C(=O)O)CC[C@]3(C)C(=CC[C@@H]4[C@@]5(C)CC[C@H](O)C(C)(C)[C@@H]5CC[C@]43C)[C@@H]2C1` [OLEANOLIC_ACID] yielded an IC50 of 40 µM.

Take `CC1(C)CC[C@]2(C(=O)O)CC[C@]3(C)C(CC4OC45[C@@]4(C)C=CC(=O)C(C)(C)[C@@H]4CC[C@]53C)C2C1` (stereo partly drawn): half-maximal inhibition (IC50) required 35.5 µM.

In the case of `CC1(C)CC[C@]2(C(=O)O)CC[C@]3(C)C(=CC[C@@H]4[C@@]5(C)CCC(=O)C(C)(C)[C@@H]5CC[C@]43C)[C@@H]2C1` [OLEANONIC ACID], 37.1 µM corresponded to half-maximal inhibition (IC50).

The species entered for a further experiment is Mus musculus. The experiment in a line: Compound was measured for its inhibitory activity on IFN-gamma-induced nitric oxide production in mouse macrophage; toxic at 5-10 uM. The class given is functional.
For `C[C@@H]1CC[C@]2(C(=O)O)CC[C@]3(C)C(=CC[C@@H]4[C@@]5(C)CC[C@H](O)C(C)(C)[C@@H]5CC[C@]43C)C2[C@H]1C` (stereo partly drawn), the IC50 result is recorded as “toxic at 5-10 uM”.
